One data set has as its target p38 MAPK (Homo sapiens, UniProt Q16539). Description: Inhibition of MEF2A phosphorylation by p38 MAPK in vitro. It is filed as biochemical. To be noted: MEF2A (10 nM) phosphorylation by active recombinant p38 (1 nM), 5 minutes. The procedure:
This assay was performed to quantify the effect of the compounds of the invention on MEF2-A phosphorylation by p38 MAPK in vitro.
To that end, briefly, active recombinant p38 (1 nM) and MEF2A (10 nM) were incubated with different concentrations of Compound 1 in a kinase buffer for 5 minutes. The proteins were resolved using SDS-PAGE and the activity of p38 was measured as phosphorylated MEF2A using anti-P-MEF2A (T312), a specific antibody. The mean of the results is graphically depicted as a percentage with respect to the controls (DMSO) of two independent experiments conducted in duplicate. For comparative purposes, Compound 5 at a concentration of 10 μM was used.
Finally, the in vitro mean inhibitory concentration (IC50) of this reaction for each assayed compound was determined as the measurement of the efficacy of a compound for inhibiting this biochemical function using a sufficient range of concentrations of each of these compounds (data not shown).

The test system of a further data set is THP-1 monocytes. Description: THP-1 monocyte survival (propidium iodide, FACS). The class given is cell-based, human. The following applies: dose causing the death of 50% of the cells; THP-1, propidium iodide FACS. The procedure:
This assay was performed to analyze the effect of the compounds of the invention on tumor necrosis factor alpha (TNF-α) secretion in response to bacterial lipopolysaccharide (LPS) in human monocytes (THP-1) and on the survival of said THP-1 monocytes in the presence of said compounds.
Briefly, cells from human monocytic cell line THP-1 (ATCC) at a density of about 10^6 cells/ml were stimulated with bacterial LPS (Sigma, Ref.# L2654) at a concentration of 1 mg/ml for 4 hours in the presence of the compounds of the invention dissolved in dimethyl sulfoxide (DMSO) at different concentrations (0.001, 0.01, 0.1, 1, 10 and 100 μM). The amount of TNF-α secreted into the medium in response to LPS was quantified by means of an ELISA assay (BioTrak, Ref.# RPN2758, GE-Amersham) following the manufacturer's instructions. Cell viability was quantified by means of flow cytometry FACS (FACScalibur, Becton Dickinson) after staining the treated cells with propidium iodide (1 mg/l) and quantifying the amount of positive cells for this stain (Software Cell Quest Pro).

Data set [1] has as its system wild-type mice of strain C54BL/6. Description: Hyperalgesia induced by high doses of carrageenan in wild-type mice, intrathecal injection. It is filed as in vivo. The following applies: for analgesic effect: FIG. 11A. The procedure: The administration of high doses of carrageenan is known to induce hyperalgesia and prolonged inflammation in wild-type mice. Briefly, 16 female wild-type mice of strain C54BL/6 (4 mice per group, 8 paws for each condition) were subjected to intraplantar injection of carrageenan (Sigma-Aldrich, 20 μL of a 2% solution % in saline) for inducing inflammatory-type hyperalgesia in the extremities. Six (6) days after injecting carrageenan, the paw withdrawal latency time when the paw is in contact with heat was determined as an indication of inflammatory-type pain at time 0 (T=0). The known p38 MAPK inhibitor SB239063 [trans-4-[4-(4-fluorophenyl)-5-(2-methoxy-4-pyrimidinyl)-1H-imidazol-1-yl]cyclohexanol] (5 μg in 5 μL of 20% DMSO), the carrier (20% DMSO), or Compound 1 at different concentrations (0.5, 1.0 and 1.5 μg in 5 μL of 20% DMSO) was then intrathecally injected.

A short description of data set [2]: Paw thickness as measurement of ongoing inflammation. The following applies: six days after treatment, FIG. 11E. It is filed as in vivo, mice.
Data set [3] deals with peritoneal macrophages of WT and GRK2^+/− mice. Description: LPS-induced TNF-α secretion in peritoneal macrophages of WT and GRK2+/− mice. To be noted: all doses, FIG. 13. It is filed as cell-based. The procedure: GRK2^+/− peritoneal macrophages were subjected to treatment with LPS and TNF secretion was measured in the presence of increasing doses of Compound 1 as described above. The inhibition observed in GRK2^+/− macrophages was greater than that obtained for WT cells for all doses of Compound 1. The data are means of points in duplicate referring in each case to the secretion obtained in WT macrophages in the presence of Compound 1 at the same dose.
TNF-α secretion inhibition in peritoneal macrophages of GRK2^+/− mice with Compound 1 was studied. As can be observed in FIG. 13, the greater effect of Compound 1 on GRK2^+/− macrophages may indicate that cells with a lower GRK2 level, as occurs in immune system cells from patients with inflammatory pathologies (Vroon A, Kavelaars A, Limmroth V, Lombardi M S, Goebel M U, Van Dam A M, Caron M G, Schedlowski M, Heijnen C J., J Immunol., 2005, 174(7), 4400-6) are more sensitive to such inhibition.

Setting [4] is: doses of 1 and 1.5 μg intrathecal.

Chain of p38 MAPK (Q16539 whole entry): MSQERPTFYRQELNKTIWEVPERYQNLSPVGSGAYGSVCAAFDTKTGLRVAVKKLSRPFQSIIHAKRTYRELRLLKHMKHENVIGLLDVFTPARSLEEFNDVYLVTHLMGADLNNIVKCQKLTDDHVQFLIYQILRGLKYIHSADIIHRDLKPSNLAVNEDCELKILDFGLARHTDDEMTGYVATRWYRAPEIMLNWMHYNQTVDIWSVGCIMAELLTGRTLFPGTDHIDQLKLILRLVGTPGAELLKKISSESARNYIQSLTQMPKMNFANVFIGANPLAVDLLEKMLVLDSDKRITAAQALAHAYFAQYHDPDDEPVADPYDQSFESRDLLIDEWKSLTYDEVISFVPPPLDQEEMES

For the molecule `Cc1ccc(Cl)cc1Nc1ccc([N+](=O)[O-])c2nonc12` [Compound 1, (5-chloro-2-methyl-phenyl)-(7-nitro-benzo[1,2,5]oxadiazol-4-yl)-amine], the IC50 – broadly, the point on the concentration scale where inhibition reaches its midpoint – at p38 MAPK is 6.5 µM. Also, in the data set on THP-1 monocytes, the “TD50 (μM)” value was “≈200 μM (n = 2)”. Moreover, the analgesic effect result in data set [1] (dose of 0.5 μg intrathecal, 6 days after carrageenan) is listed as “temporary effect”. In addition, in data set [1] (setting [4]), the “duration of analgesic effect” value is on record as “at least 5 days” and the analgesic effect result is reported as “long-term analgesic effect”. In data set [2], the mouse paw thickness entry was “increased”. Further, the “inhibition of TNF secretion in GRK2+/− macrophages compared with WT cells” value in data set [3] was “greater”.

For the origin of these results see patent US9096554B2, “Drugs for inhibiting p38 and uses thereof” (UNIVERSIDAD AUTÓNOMA DE MADRID, priority 2011, dated 2015).
